Data set [1] concerns feral pigs. The conditions noted are these: cited from earlier work.
In data set [2] the test system is feral pigs. The data set can be described thus: LD50 and time to death of 1080 in feral pigs. The conditions noted are these: feral pigs vs wild dogs.
The conditions of data set [3]: pH<7.

Molecules are shown by their SMILES.

For the compound `O=C(O)CF` [compound 1080, sodium fluoroacetate], the “time for pigs to die” value with feral pigs [1] is given as “up to 12 hours”. The “multiple of the dose used for canid pests” value in the data set with feral pigs [2] is reported as not above 40 fold.

Turning to `O=NO` [sodium nitrite], the “stability of sodium nitrite in the bait composition” value in data set [3] is listed as “unstable”.

The values above are taken from patent publication US12653183B2, “Hygroscopic salt microencapsulation, and uses thereof” (priority 2020, dated 2026).
